Reference: ChEMBL document CHEMBL3885861, “Open TG-GATES”

Species on record: Rattus norvegicus
Assay: Open TG-GATES - Regimen: Daily Repeat
Format: toxicity, organism-based, Sprague-Dawley
Design: regimen Daily Repeat, gender Male, age 6 weeks
Settings: in vivo, po, 0 mg/kg, route gavage, dose level Control; for APTT / Bas / Eos / Fbg / Hb / Ht / Lym / MCH / MCHC / MCV / Mono / Neu / PT / Plat / RBC / Ret / WBC: tissue Blood; for KIDNEY_L / KIDNEY_R / KIDNEY_TOTAL: tissue Kidney; for LIVER: tissue Liver; for A/G / ALP / ALT / AST / BUN / CRE / Ca / Cl / DBIL / GLC / IP / K / LDH / Na / PL / RALB / TBIL / TC / TG / TP / gamma-GTP: tissue Plasma

## CN(C)CCN(Cc1cccs1)c1ccccn1
72 h, time 3 day
  TERMINAL_BW: 217.2 g
  APTT: 22.4 s
  Bas: 0%
  Eos: 0.6%
  Fbg: 290.8 mg/dL
  Hb: 12.9 g/dL
  Ht: 38.8%
  Lym: 80.4%
  MCH: 21.3 pg
  MCHC: 33.4%
  MCV: 63.8 fL
  Mono: 1.8%
  Neu: 16.4%
  PT: 15.9 s
  Plat: 125.8 x10_4/uL
  RBC: 609 x10_4/ul
  Ret: 6.8%
  WBC: 107.9 x10_2/uL
  KIDNEY_L: 1 g
  KIDNEY_R: 1 g
  KIDNEY_TOTAL: 2 g
  LIVER: 10.2 g
  A/G: 1.2
  ALP: 1533 IU/L
  ALT: 39.2 IU/L
  AST: 68 IU/L
  BUN: 16.8 mg/dL
  CRE: 0.2 mg/dL
  Ca: 10.9 mg/dL
  Cl: 106.4 meq/L
  DBIL: 0.002 mg/dL
  GLC: 187.2 mg/dL
  IP: 7.1 mg/dL
  K: 4.4 meq/L
  LDH: 210.8 IU/L
  Na: 142.6 meq/L
  PL: 140.6 mg/dL
  RALB: 3 g/dL
  TBIL: 0.012 mg/dL
  TC: 75.4 mg/dL
  TG: 86.8 mg/dL
  TP: 5.6 g/dL
  gamma-GTP: 1 IU/L
[…], time 7 day
  TERMINAL_BW: 246.2 g
  APTT: 21.1 s
  Bas: 0%
  Eos: 0.6%
  Fbg: 320.8 mg/dL
  Hb: 13.4 g/dL
  Ht: 39.8%
  Lym: 80.2%
  MCH: 20.8 pg
  MCHC: 33.6%
  MCV: 61.8 fL
  Mono: 2%
  Neu: 16.4%
  PT: 17 s
  Plat: 131 x10_4/uL
  RBC: 644.2 x10_4/ul
  Ret: 5.8%
  WBC: 122.7 x10_2/uL
  KIDNEY_L: 1 g
  KIDNEY_R: 1 g
  KIDNEY_TOTAL: 2.1 g
  LIVER: 10.9 g
  A/G: 1.2
  ALP: 1666.2 IU/L
  ALT: 40 IU/L
  AST: 68 IU/L
  BUN: 17.8 mg/dL
  CRE: 0.2 mg/dL
  Ca: 10.6 mg/dL
  Cl: 107.4 meq/L
  DBIL: 0 mg/dL
  GLC: 182.4 mg/dL
  IP: 7.3 mg/dL
  K: 4.4 meq/L
  LDH: 164.4 IU/L
  Na: 144.4 meq/L
  PL: 146.6 mg/dL
  RALB: 3 g/dL
  TBIL: 0.01 mg/dL
  TC: 72.6 mg/dL
  TG: 125.8 mg/dL
  TP: 5.6 g/dL
  gamma-GTP: 1.8 IU/L
[…], time 14 day
  TERMINAL_BW: 277 g
  APTT: 21.6 s
  Bas: 0%
  Eos: 1%
  Fbg: 303.8 mg/dL
  Hb: 14 g/dL
  Ht: 40.9%
  Lym: 81.8%
  MCH: 20.3 pg
  MCHC: 34.2%
  MCV: 59.4 fL
  Mono: 2%
  Neu: 14.4%
  PT: 16.7 s
  Plat: 112.6 x10_4/uL
  RBC: 689.8 x10_4/ul
  Ret: 4.2%
  WBC: 133.3 x10_2/uL
  KIDNEY_L: 1.1 g
  KIDNEY_R: 1.1 g
  KIDNEY_TOTAL: 2.3 g
  LIVER: 11.5 g
  A/G: 1.1
  ALP: 1834 IU/L
  ALT: 39.6 IU/L
  AST: 68 IU/L
  BUN: 19 mg/dL
  CRE: 0.2 mg/dL
  Ca: 10.1 mg/dL
  Cl: 107.4 meq/L
  DBIL: 0.002 mg/dL
  GLC: 194.8 mg/dL
  IP: 6.7 mg/dL
  K: 4.1 meq/L
  LDH: 160.2 IU/L
  Na: 142.4 meq/L
  PL: 138 mg/dL
  RALB: 3 g/dL
  TBIL: 0.008 mg/dL
  TC: 63.8 mg/dL
  TG: 128 mg/dL
  TP: 5.5 g/dL
  gamma-GTP: 1.2 IU/L
[…], time 28 day
  TERMINAL_BW: 347.3 g
  APTT: 23.4 s
  Bas: 0%
  Eos: 1%
  Fbg: 288.2 mg/dL
  Hb: 14.7 g/dL
  Ht: 42.7%
  Lym: 79%
  MCH: 19.5 pg
  MCHC: 34.3%
  MCV: 56.9 fL
  Mono: 1.6%
  Neu: 17.4%
  PT: 16.1 s
  Plat: 97.6 x10_4/uL
  RBC: 751.4 x10_4/ul
  Ret: 2.9%
  WBC: 92 x10_2/uL
  KIDNEY_L: 1.3 g
  KIDNEY_R: 1.3 g
  KIDNEY_TOTAL: 2.5 g
  LIVER: 13.4 g
  A/G: 1.2
  ALP: 1175.4 IU/L
  ALT: 42.6 IU/L
  AST: 66.4 IU/L
  BUN: 18.6 mg/dL
  CRE: 0.2 mg/dL
  Ca: 10.2 mg/dL
  Cl: 107.8 meq/L
  DBIL: 0.004 mg/dL
  GLC: 183.6 mg/dL
  IP: 6 mg/dL
  K: 4.1 meq/L
  LDH: 156 IU/L
  Na: 143.2 meq/L
  PL: 131.8 mg/dL
  RALB: 3.1 g/dL
  TBIL: 0.012 mg/dL
  TC: 67 mg/dL
  TG: 103 mg/dL
  TP: 5.7 g/dL
  gamma-GTP: 1.8 IU/L
